Source: paper PMC13172357 (Nature Communications, 2026)
pIC50: −log10 of the molar value.

Legend:
Panc89 cells [1] = assay: Confluence measurement (cell growth), Panc89; format: cell-based, human; conditions: Panc89, 1-10 µM, 72 h, 25 mM or 5 mM D-glucose
Panc89 cells [2] = assay: Total proteome analysis, DDA mass spectrometry, Panc89 cells; format: cell-based, H. sapiens; conditions: DDA Panc89, 5 µM, 6, 24 or 72 h
Experimental: Following treatment, cells were harvested, washed twice with PBS, and pellets were flash frozen in liquid nitrogen before being stored at −80 °C. Samples were prepared using the single-pot, solid-phase-enhanced sample-preparation (SP3) strategy. All buffers and solutions were prepared with mass spectrometry (MS)-grade water (Honeywell). Cell pellets were taken up in 100 µL 1x sample buffer (50 mM Hepes pH 8.0, 1% (wt/v) SDS, 1% (v/v) NP-40, 10 mM TCEP, 40 mM chloroacetamide) and samples were heated at 90 °C for 5 min prior to sonication with a Bioruptor UCD-300 (Diagenode) for ten cycles of 1 min pulse and 30 s pause at high power. The samples were then supplemented with Benzonase (20 U/sample) and sonified for 5 min in a water bath (Bandelin) followed by 30 min incubation at […].
The protein extracts were then centrifuged (20000 ×g, RT, 40 min) and the protein concentration of the cleared lysates was determined using the Pierce 660 nm Protein Assay Reagent (#22660; Thermo Scientific) with the Ionic Detergent Compatibility Reagent (#22663; Thermo Scientific) according to the manufacturers’ instructions. Next, 15 µg of total protein per sample in a volume of 100 µL sample buffer was transferred to a 500 µL 96-well plate and treated with 7 U of benzonase (#71206; Merck Millipore) in dilution buffer (20 mM Hepes pH 8.0, 2 mM MgCl2) at 37 °C for 30 min with agitation at 1500 rpm. After Benzonase treatment samples were heated to 90 °C for 5 min and after cooling down to room temperature, iodoacetamide to a final concentration of 10 mM was added for complete alkylation of cysteines (37 °C, 15 min, 1000 rpm, in the dark).
Then, 3 µL of a 50 µg/µL 1:1 mixture of hydrophilic (#45152105050250) and hydrophobic (#65152105050250) carboxylate modified Sera-Mag SpeedBeads (Cytiva), that were washed twice with MS-grade water, were added to the samples. The next steps were carried out at room temperature unless noted otherwise. Afterwards, the samples were mixed shortly (1 min, 1000 rpm) and collected by short centrifugation (10 s, 200 ×g). […]

HiBiT-USP7 = HiBiT-USP7 (Homo sapiens, UniProt Q93009); assay: HiBiT USP7 degradation assay, MV4-11 cells; format: cell-based; conditions: MV4-11 HiBiT-USP7, 6 h and 24 h
Sequence of HiBiT-USP7 (Q93009 whole entry, the tested form may be a part): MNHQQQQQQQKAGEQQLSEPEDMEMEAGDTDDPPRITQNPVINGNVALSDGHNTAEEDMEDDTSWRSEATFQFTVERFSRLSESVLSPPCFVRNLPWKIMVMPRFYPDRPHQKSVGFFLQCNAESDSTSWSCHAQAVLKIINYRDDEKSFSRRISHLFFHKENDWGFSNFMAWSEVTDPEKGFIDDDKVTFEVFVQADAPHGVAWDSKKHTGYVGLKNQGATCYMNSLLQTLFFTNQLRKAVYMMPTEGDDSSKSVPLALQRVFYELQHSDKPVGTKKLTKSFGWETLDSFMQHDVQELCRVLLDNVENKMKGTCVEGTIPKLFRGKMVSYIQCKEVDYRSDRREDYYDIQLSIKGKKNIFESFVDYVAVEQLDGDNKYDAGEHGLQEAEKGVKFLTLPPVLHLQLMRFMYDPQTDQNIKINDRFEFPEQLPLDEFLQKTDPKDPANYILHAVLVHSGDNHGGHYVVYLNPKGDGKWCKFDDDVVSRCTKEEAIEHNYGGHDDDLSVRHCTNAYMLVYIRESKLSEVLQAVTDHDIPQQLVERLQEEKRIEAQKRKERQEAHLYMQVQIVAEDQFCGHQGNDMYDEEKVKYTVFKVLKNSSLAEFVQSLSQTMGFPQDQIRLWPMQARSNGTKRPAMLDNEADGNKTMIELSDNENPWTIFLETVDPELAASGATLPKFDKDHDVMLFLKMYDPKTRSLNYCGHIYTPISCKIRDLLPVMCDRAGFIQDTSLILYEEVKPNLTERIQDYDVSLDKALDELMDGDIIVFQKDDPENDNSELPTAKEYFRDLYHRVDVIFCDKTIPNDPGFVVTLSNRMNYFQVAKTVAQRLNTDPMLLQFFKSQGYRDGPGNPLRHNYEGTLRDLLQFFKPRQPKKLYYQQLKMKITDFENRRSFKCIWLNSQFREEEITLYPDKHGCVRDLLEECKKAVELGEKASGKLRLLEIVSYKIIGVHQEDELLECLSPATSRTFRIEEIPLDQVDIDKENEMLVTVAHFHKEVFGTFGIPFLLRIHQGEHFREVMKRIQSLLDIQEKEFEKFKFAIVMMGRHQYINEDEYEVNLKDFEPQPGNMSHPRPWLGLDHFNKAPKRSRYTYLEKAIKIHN
Experimental: HiBiT-USP7 construct was cloned by extraction of USP7 fragment from plasmid pQHA-USP7 WT puroR (Addgene #46753) using appropriate restriction sites. The USP7 fragment was then ligated into the pRRL-PGK-HiBiT entry vector to generate the plasmid.
Lentiviral infection was used to generate stable a MV4-11 HiBiT cell line. Lentivirus was produced using plasmids psPAX2, pMD2.G, and HiBiT-USP7 plasmid in HEK293 cells. MV4-11 cells were infected with filtered virus supernatant and selected after 48 h of infection for the generation of the stable MV4-11^HiBiT-USP7 cell line.
The assay was performed as described previously. Briefly, MV4-11^HiBiT-USP7 cells were seeded and treated with compounds for the indicated time. Nano-Glo HiBiT Lytic Detection System (Promega) was used for the assay and luminescence was measured on a Tecan Spark microplate reader (Tecan). DC50 values were calculated using the sigmoidal dose-response (four parameters) equation in GraphPad Prism and are given as the concentration where 50% of the total signal was remaining. Dmax values are given as the maximum degradation observed at any concentration.

[3] = system: proteins enriched from Panc89 lysate; assay: Competitive pulldown with NK264-functionalized beads, mass spectrometry; format: binding, human; conditions: 10 µM competitor
Experimental: The next steps were carried out at room temperature unless noted otherwise. Afterwards, the samples were mixed shortly (1 min, 1000 rpm) and collected by short centrifugation (10 s, 200 ×g). Protein binding was induced by the addition of an equal volume of pure ethanol (10 min, 1000 rpm), the beads were collected by a brief centrifugation step (10 s, 200 ×g) and the plate was placed on a magnetic stand. Beads were allowed to bind for at least 5 min before the supernatant was removed. The beads were then taken up in 180 µL 80% ethanol and transferred to a fresh multiwell plate.
Samples were incubated at 37 °C for 19 h while shaking (1300 rpm). On the next day, the samples were briefly centrifuged (10 s, 200 ×g) and placed on a magnet for 5 min. The clear solution containing the tryptic peptides was transferred to a fresh multiwell plate. The beads were taken up in 47 µL 25 mM ammonium bicarbonate and incubated while shaking (10 min, 1000 rpm).

[4] = system: Ma-Mel-47 USP7 K.O. cells; assay: Medium color switch (images), Ma-Mel-47 USP7 K.O. cells; format: cell-based, human; conditions: Ma-Mel-47 USP7-KO, 72 h, 5 µM NK192, 10 µM FT671, 1 µM NK266
[5] = target: T1, human USP7 full length protein (Homo sapiens, UniProt Q93009); assay: USP7 inhibition assay (Ubiquitin-Rhodamine110Gly cleavage); format: biochemical; conditions: Ub-RhoG cleavage, read-out: IC50 (half-maximal inhibition)
T1 construct: human USP7 full length protein
T1 sequence (Q93009 whole entry): as the sequence (Q93009 whole entry, the tested form may be a part) above
Experimental: USP7 inhibitors in DMSO were diluted in UbR buffer (40 mM Tris-HCl pH 8, 150 mM NaCl, 1 mM TCEP, 0.1 mg/mL BSA, 0.01% Tween20) to a concentration of 80 μM (4x). This stock was then further diluted in an 11-times serial dilution in UbR buffer containing 4% DMSO (4x). To this was added the same volume of human USP7 full length protein[59] […] The assay was initiated upon addition of 10 μL per well of Ubiquitin-Rhodamine110Gly (Ub-RhoG) (100 nM in UbR buffer, 2x). […] Normalization was carried out using samples featuring either no inhibitor or no enzyme as respective controls. […] Slopes of fluorescence over time curves were determined with Microsoft Excel through linear regression using the first 15 min of each measurement.

## C[C@H](CC(=O)N1CCC(O)(Cn2cnc3c(cnn3-c3ccc(F)cc3)c2=O)CC1)c1ccccc1 [NK192]
Panc89 cells [1]
  Cell growth (in words): not affected
Panc89 cells [2]
  USP7 protein level changes (in words): did not lead to USP7 protein level changes beyond the significance threshold
HiBiT-USP7
  HiBiT-USP7 levels (in words): partial reduction of USP7 levels
[3]
  Proteome-wide target specificity (in words): very high specificity for USP7
[4]
  Change of media color (in words): the same change of media color
[5]
  pIC50: 7.70
